These results are taken from patent US20060127423A1, “Organic compounds” (priority 1998, published 2006).

≈ marks a conversion by molar mass, not a printed value.

Series [1] can be described thus: Solubility of epothilone B in various solvent systems. Format: physicochemical. On the procedure: If not indicated otherwise all solubility data refer to T=22° C.
Series [2] can be described thus: Stability of PEG-containing infusion concentrates: degradation products by HPLC. Format: physicochemical. On the procedure:
The stability of aqueous versus nonaqueous polyethyleneglycol infusion concentrates comprising epothilone B at different concentration and various temperatures is determined. Typically, a known amount of epothilone B is dissolved in 1.0 ml of each of the various solvent systems and each solution is sterile filtered and charged to 1 ml white-glass vials with grey rubber stoppers and grey flip-off caps. The stability is analyzed by determining formation of degradation products in each of the infusion concentrates as a function of time and temperature. Each sample is analyzed by HPLC, the sample is prepared by diluting the concentrate with an aqueous medium.

Test in series [3]: as above
Format: physicochemical. The settings on record: ethanol/water 59:41 (w/w), 5 mg/ml, 2-8° C.

For series [4] the following is noted: previously reported; cited from earlier work.

Usually Solubility stands for the concentration that dissolves in the medium under given conditions. Low readings indicate little dissolved substance, high ones much dissolved substance. As for `C/C(=C\c1csc(C)n1)[C@@H]1C[C@@H]2O[C@]2(C)CCC[C@H](C)[C@H](O)[C@@H](C)C(=O)C(C)(C)[C@@H](O)CC(=O)O1` [epothilone B], the Solubility is 1100 µg/mL (≈ 2170 µM) in series [1] (EtOH/H2O (v/v) 10/90, T=22° C.); 1300 µg/mL (≈ 2560 µM) in series [1] (EtOH/H2O (v/v) 20/80, T=22° C.); 4100 µg/mL (≈ 8080 µM) in series [1] (EtOH/H2O (v/v) 30/70, T=22° C.); 27000 µg/mL (≈ 53200 µM) in series [1] (EtOH/H2O (v/v) 50/50, T=22° C.); more than 50000 µg/mL in series [1] (EtOH/H2O (v/v) 100/0, T=22° C.); 190 µg/mL (≈ 374 µM) in series [1] (H2O (pH 6.0), 4° C.). Besides, the Solubility in series [1] (H2O (pH 6.0), T=22° C.) stood at 160 µg/mL (≈ 315 µM); in series [1] (H2O, 0.9% glucose, T=22° C.), 160 µg/mL (≈ 315 µM); in series [1] (H2O, 5% glucose, T=22° C.) it was 160 µg/mL (≈ 315 µM); in series [1] (H2O, 5% poloxamer 188, T=22° C.), 230 µg/mL (≈ 453 µM); in series [1] (H2O, 15% glycerin, T=22° C.), 190 µg/mL (≈ 374 µM); in series [1] (PEG 300/H2O (v/v) 30/70, T=22° C.) it was 900 µg/mL (≈ 1770 µM). The Solubility in series [1] (PEG 300/H2O (v/v) 50/50, T=22° C.) was determined as 10000 µg/mL (≈ 19700 µM); in series [1] (PEG 300/H2O (v/v) 70/30, T=22° C.), 2500 µg/mL (≈ 4920 µM); in series [1] (PEG 300/H2O (v/v) 100/0, T=22° C.) it was 12000 µg/mL (≈ 23600 µM); in series [1] (PEG 400/H2O (v/v) 30/70, T=22° C.) it was 800 µg/mL (≈ 1580 µM); in series [1] (PEG 400/H2O (v/v) 50/50, T=22° C.) it was 11000 µg/mL (≈ 21700 µM); in series [1] (PEG 400/H2O (v/v) 70/30, T=22° C.), 2300 µg/mL (≈ 4530 µM). Also, the Solubility in series [1] (PEG 400/H2O (v/v) 100/0, T=22° C.) amounted to 30000 µg/mL (≈ 59100 µM); in series [1] (Phosphate buffer pH 7.4, 4° C.), 190 µg/mL (≈ 374 µM); in series [1] (Phosphate buffer pH 7.4, T=22° C.), 160 µg/mL (≈ 315 µM); in series [1] (Propylene glycol/H2O (v/v) 30/70, T=22° C.) it was 600 µg/mL (≈ 1180 µM); in series [1] (Propylene glycol/H2O (v/v) 50/50, T=22° C.), 1600 µg/mL (≈ 3150 µM); in series [1] (Propylene glycol/H2O (v/v) 70/30, T=22° C.), 10400 µg/mL (≈ 20500 µM). Also, the Solubility in series [1] (Propylene glycol/H2O (v/v) 100/0, T=22° C.) came to 26000 µg/mL (≈ 51200 µM). Further, the “Solubility relative to water” value in series [1] (PEG/water, propyleneglycol/water, or EtOH/water mixtures) is recorded as “significantly higher solubility”. Also, in series [1] (water at neutral pH), the Solubility in water result was “about 160 mg/l”. The “Proportion of degradation products” value is given as less than 0.1 in series [2] (PEG 300, 1 mg/ml, 3 months, 2-8° C.); less than 0.1 in series [2] (PEG 300/water 90:10 (w/w), 15 mg/ml, 7 months, 2-8° C.); 1.0 in series [2] (PEG 300/water 90:10 (w/w), 15 mg/ml, 7 months, 25° C.); less than 0.1 in series [2] (PEG 400, 1 mg/ml, 3 months, 2-8° C.); 0.2 in series [2] (PEG 400, 1 mg/ml, 3 months, 25° C.); less than 0.1 in series [2] (PEG 400/water 90:10 (w/w), 1 mg/ml, 3 months, 2-8° C.). Further, the “Proportion of degradation products” value was 0.4 in series [2] (PEG 400/water 90:10 (w/w), 1 mg/ml, 3 months, 25° C.); 0.3 in series [3] (1 month); 0.3 in series [3] (5 months); less than 0.1 in series [3] (initial).

What is called Aqueous solubility is how much of the substance goes into solution per volume. Turning to `C/C(=C\c1csc(C)n1)[C@@H]1C[C@@H]2O[C@@H]2CCC[C@H](C)[C@H](O)[C@@H](C)C(=O)C(C)(C)[C@@H](O)CC(=O)O1` [epothilone A], in series [4], the Aqueous solubility was 940 µg/mL.
